Holding throughout (assay type): biochemical
For assay [1], the target named is T1, cathepsin B (Homo sapiens, UniProt P07858).
T1 construct: cathepsin B—isolated from human liver; purchased Calbiochem 219362; host or cells: human liver (tissue isolate)
Put plainly: Cathepsin B enzyme inhibition in vitro (kinetic fluorescence assay). Particulars: Ki(cathepsin B)/Ki(calpain) ratio. As to the method: (§1) Testing for blockade of the corresponding enzymic activities was carried out by means of kinetic fluorescence assays (excitation 390 nm, emission 460 nm).
(§2) Apparent Ki values were calculated from the experimentally determined IC50 values by the Cheng-Prussoff relation assuming a reversible competitive enzyme inhibition. The Km values of the substrates used under the assay conditions indicated above were: 90 μM (Z-Phe-Arg-AMC, cathepsin B), 10 μM (Z-Gly-Pro-Arg-AMC, cathepsin K), 2 μM (Z-Phe-Arg-AMC, cathepsin L), and 30 μM (Z-Val-Val-Arg-AMC, cathepsin S).
(§3) The indicated Ki values are averages of the inhibition constants calculated on the basis of 2 to 4 independent dose-effect plots.
(§4) • 1. Calpain I: • 20 nM calpain-I—isolated from human erythrocytes (Calbiochem #208713), 100 μM Suc-Leu-Tyr-AMC (Bachem #1-1355) as substrate in buffer with 62 mM imidazole, 0.3 mM CaCl2, 0.10% CHAPS, 0.05% BSA, 1 mM DTT at pH 7.3 and room temperature. • 2. Cathepsin B: • 0.25 nM cathepsin B—isolated from human liver (Calbiochem #219362), 100 μM Z-Phe-Arg-AMC (Bachem #1-1160) as substrate 50 mM MES, 2 mM EDTA, 0.05% Brij 35, 2.5 mM L-cysteine, pH 6.0, room temperature. • 3. Cathepsin K: • 3 nM cathepsin K—activated from recombinant human procathepsin K from E. coli (Calbiochem #342001), 10 μM Z-Gly-Pro-Arg-AMC (Biomol #P-142) as substrate in 50 mM MES, 2 mM EDTA, 0.05% Brij 35, 2.5 mM L-cysteine, pH 6.0, room temperature. • 4. Cathepsin L: • 1 nM cathepsin L—isolated from human liver (Calbiochem #219402), 2 μM Z-Phe-Arg-AMC (Bachem #1-1160) as substrate in 50 mM MES, 2 mM EDTA, 0.05% Brij 35, 2.5 mM L-cysteine, pH 6.0, room temperature. • 5. Cathepsin S: • 0.5 nM recombinant human cathepsin S from E. coli (Calbiochem #219343), 20 μM Z-Val-Val-Arg-AMC (Bachem #1-1540) as substrate in 50 mM MES, 2 mM EDTA, 0.05% Brij 35, 2.5 mM L-cysteine, pH 6.0, room temperature.

The target in assay [2] is T2, cathepsin K (Homo sapiens, UniProt P43235).
T2 construct: purchased Calbiochem 342001; host or cells: E. coli
T2 sequence (P43235 115-329): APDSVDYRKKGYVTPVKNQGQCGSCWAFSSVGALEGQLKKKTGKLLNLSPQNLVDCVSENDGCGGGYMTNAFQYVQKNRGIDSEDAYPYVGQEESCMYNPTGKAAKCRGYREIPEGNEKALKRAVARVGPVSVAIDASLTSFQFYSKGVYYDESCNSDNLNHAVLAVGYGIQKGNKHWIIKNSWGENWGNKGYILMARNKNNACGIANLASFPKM
Put plainly: Cathepsin K enzyme inhibition in vitro (kinetic fluorescence assay). The note with it: Ki(cathepsin K)/Ki(calpain) ratio. On the procedure: as §1, §2, §3, §4

Assay [3] concerns the target T3, cathepsin L (Homo sapiens, UniProt P07711).
T3 construct: cathepsin L—isolated from human liver; purchased Calbiochem 219402; host or cells: human liver (tissue isolate)
Put plainly: Cathepsin L enzyme inhibition in vitro (kinetic fluorescence assay). The note with it: Ki(cathepsin L)/Ki(calpain) ratio. On the procedure:
as §1, §2, §3, §4

The target of assay [4] is T4, cathepsin S (Homo sapiens, UniProt P25774).
T4 construct: purchased Calbiochem 219343; host or cells: E. coli
T4 sequence (P25774 115-331): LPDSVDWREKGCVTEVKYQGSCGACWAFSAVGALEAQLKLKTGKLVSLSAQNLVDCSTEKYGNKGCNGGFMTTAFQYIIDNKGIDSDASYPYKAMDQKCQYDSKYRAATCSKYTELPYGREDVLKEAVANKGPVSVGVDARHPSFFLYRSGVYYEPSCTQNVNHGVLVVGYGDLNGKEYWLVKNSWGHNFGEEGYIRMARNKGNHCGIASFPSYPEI
Put plainly: Cathepsin S enzyme inhibition in vitro (kinetic fluorescence assay). Particulars: Ki(cathepsin S)/Ki(calpain) ratio. On the procedure: as §1, §2, §3, §4

T3 sequence (P07711 114-333): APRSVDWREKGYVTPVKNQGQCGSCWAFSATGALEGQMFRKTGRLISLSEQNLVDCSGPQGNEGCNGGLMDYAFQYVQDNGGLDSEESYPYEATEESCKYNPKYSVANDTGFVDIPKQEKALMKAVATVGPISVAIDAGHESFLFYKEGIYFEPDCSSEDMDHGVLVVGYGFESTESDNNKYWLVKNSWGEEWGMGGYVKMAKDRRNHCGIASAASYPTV

As for `NC(=O)C(=O)C(Cc1ccccc1)NC(=O)c1cc(Cl)cnc1-n1ccc(-c2ccc(N3CCOCC3)cc2)n1` (stereo not shown) [Example 31, N-(3-Amino-1-benzyl-2,3-dioxopropyl)-5-chloro-2-[3-(4-morpholin-4-ylphenyl)-1H-pyrazol-1-yl]nicotinamide], the “Sel cat. B” value in assay [1] is reported as “++ (++ means a Ki(cathepsin B)/Ki(calpain) ratio of ≧30)”. In addition, the “Sel cat. K” value in assay [2] is reported as “+ (+ means 10≦Ki(cathepsin K)/Ki(calpain)<30)”. Besides, in assay [3], the “Sel cat. L” value is “+ (+ means 30≦Ki(cathepsin L)/Ki(calpain)<50)”.
As for `CC(C)c1ccc2c(c1)-c1nn(-c3ncccc3C(=O)NC(Cc3ccccc3)C(=O)C(N)=O)cc1CO2` (stereo not shown) [Example 144, N-[3-Amino-2,3-dioxo-1-(phenylmethyl)propyl]-2-[8-(1-methylethyl)chromeno[4,3-c]pyrazol-2(4H)-yl]pyridine-3-carboxamide], the “Sel cat. B” value in assay [1] is “+ (+ means 10≦Ki(cathepsin B)/Ki(calpain)<30)”. The “Sel cat. L” value in assay [3] is “++ (++ means a Ki(cathepsin L)/Ki(calpain) ratio of ≧50)”. For the same compound, the “Sel cat. S” value in assay [4] is “++ (++ means a Ki(cathepsin S)/Ki(calpain) ratio of ≧100)”.
As for `Cl.NC(=O)C(=O)C(Cc1ccccc1)NC(=O)c1cccnc1-n1ccc(-c2ccc(N3CCOCC3)cc2)n1` (stereo not shown) [Example 29, N-(3-Amino-1-benzyl-2,3-dioxopropyl)-2-[3-(4-morpholin-4-ylphenyl)-1H-pyrazol-1-yl]nicotinamide hydrochloride], the “Sel cat. K” value in assay [2] is “+ (+ means 10≦Ki(cathepsin K)/Ki(calpain)<30)”. For the same compound, in assay [3], the “Sel cat. L” value is “++ (++ means a Ki(cathepsin L)/Ki(calpain) ratio of ≧50)”. Moreover, the “Sel cat. S” value in assay [4] is “++ (++ means a Ki(cathepsin S)/Ki(calpain) ratio of ≧100)”.
As for `NC(=O)C(=O)C(Cc1ccccc1)NC(=O)c1cc(Cl)cnc1-n1ccc(-c2ccccc2)n1` (stereo not shown) [Example 27, N-(3-Amino-1-benzyl-2,3-dioxopropyl)-5-chloro-2-(3-phenyl-1H-pyrazol-1-yl)nicotin-amide], in assay [1], the “Sel cat. B” value is on record as “++ (++ means a Ki(cathepsin B)/Ki(calpain) ratio of ≧30)”. In assay [2], the “Sel cat. K” value is “+ (+ means 10≦Ki(cathepsin K)/Ki(calpain)<30)”. For the same compound, the “Sel cat. L” value in assay [3] is listed as “+ (+ means 30≦Ki(cathepsin L)/Ki(calpain)<50)”.
Take `NC(=O)C(=O)C(Cc1ccc(Br)cc1)NC(=O)c1cccnc1-n1ccc(-c2ccccc2)n1` (stereo not shown) [Example 122, N-{3-Amino-1-[(4-bromophenyl)methyl]-2,3-dioxopropyl}-2-(3-phenyl-1H-pyrazol-1-yl)pyridine-3-carboxamide]: in assay [1], the “Sel cat. B” value was “++ (++ means a Ki(cathepsin B)/Ki(calpain) ratio of ≧30)”. The “Sel cat. L” value in assay [3] was “++ (++ means a Ki(cathepsin L)/Ki(calpain) ratio of ≧50)”. In addition, the “Sel cat. S” value in assay [4] was “++ (++ means a Ki(cathepsin S)/Ki(calpain) ratio of ≧100)”.
Turning to `N#Cc1cnc(-n2ccc(-c3ccccc3)n2)c(C(=O)NC(Cc2ccccc2)C(=O)C(N)=O)c1` (stereo not shown) [Example 82, N-(3-Amino-1-benzyl-2,3-dioxopropyl)-5-cyano-2-(3-phenyl-1H-pyrazol-1-yl)nicotinamide], in assay [1], the “Sel cat. B” value is listed as “++ (++ means a Ki(cathepsin B)/Ki(calpain) ratio of ≧30)”. Also, the “Sel cat. K” value in assay [2] was “++ (++ means a Ki(cathepsin K)/Ki(calpain) ratio of ≧30)”. Moreover, the “Sel cat. L” value in assay [3] is given as “++ (++ means a Ki(cathepsin L)/Ki(calpain) ratio of ≧50)”.
`NC(=O)C(=O)C(Cc1ccccc1)NC(=O)c1cccnc1-n1ccc(-c2cccc(N3CCCC3)c2)n1` (stereo not shown) [Example 74, N-(3-Amino-1-benzyl-2,3-dioxopropyl)-2-[3-(3-pyrrolidin-1-ylphenyl)-1H-pyrazol-1-yl]nicotinamide]: the “Sel cat. B” value in assay [1] is on record as “++ (++ means a Ki(cathepsin B)/Ki(calpain) ratio of ≧30)”. In addition, in assay [2], the “Sel cat. K” value is recorded as “++ (++ means a Ki(cathepsin K)/Ki(calpain) ratio of ≧30)”. Moreover, the “Sel cat. S” value in assay [4] is “++ (++ means a Ki(cathepsin S)/Ki(calpain) ratio of ≧100)”.
As for `NC(=O)C(=O)C(Cc1ccccc1)NC(=O)c1cccnc1-n1ccc(-c2cccc3cnccc23)n1` (stereo not shown) [Example 156, N-[3-Amino-2,3-dioxo-1-(phenylmethyl)propyl]-2-(3-isoquinolin-5-yl-1H-pyrazol-1-yl)pyridine-3-carboxamide], in assay [1], the “Sel cat. B” value is given as “+ (+ means 10≦Ki(cathepsin B)/Ki(calpain)<30)”. Besides, the “Sel cat. L” value in assay [3] is on record as “+ (+ means 30≦Ki(cathepsin L)/Ki(calpain)<50)”. Also, the “Sel cat. S” value in assay [4] is “++ (++ means a Ki(cathepsin S)/Ki(calpain) ratio of ≧100)”.
For “N-{3-Amino-1-[(4-fluorophenyl)methyl]-2,3-dioxopropyl}-2-[3-(2,3-dichlorophenyl)-1H-pyrazol-1-yl]pyridine-3-carboxamide [Example 161]”, the “Sel cat. B” value in assay [1] is “+ (+ means 10≦Ki(cathepsin B)/Ki(calpain)<30)”. Besides, in assay [3], the “Sel cat. L” value is recorded as “+ (+ means 30≦Ki(cathepsin L)/Ki(calpain)<50)”. In addition, in assay [4], the “Sel cat. S” value is recorded as “++ (++ means a Ki(cathepsin S)/Ki(calpain) ratio of ≧100)”.
As to `NC(=O)C(=O)C(CC1CCCCC1)NC(=O)c1cccnc1-n1ccc(-c2ccccc2)n1` (stereo not shown) [Example 66, N-[3-Amino-1-(cyclohexylmethyl)-2,3-dioxopropyl]-2-(3-phenyl-1H-pyrazol-1-yl)nicotinamide], the “Sel cat. K” value in assay [2] is “+ (+ means 10≦Ki(cathepsin K)/Ki(calpain)<30)”. Further, the “Sel cat. L” value in assay [3] is “+ (+ means 30≦Ki(cathepsin L)/Ki(calpain)<50)”. Moreover, the “Sel cat. S” value in assay [4] is “++ (++ means a Ki(cathepsin S)/Ki(calpain) ratio of ≧100)”.
`NC(=O)C(=O)C(Cc1ccccc1)NC(=O)c1cccnc1-n1ccc(-c2ccc3c(c2)CCO3)n1` (stereo not shown) [Example 75, N-(3-Amino-1-benzyl-2,3-dioxopropyl)-2-[3-(2,3-dihydrobenzo[b]furan-5-yl)-1H-pyrazol-1-yl]nicotinamide]: the “Sel cat. K” value in assay [2] was “+ (+ means 10≦Ki(cathepsin K)/Ki(calpain)<30)”. The “Sel cat. L” value in assay [3] is recorded as “++ (++ means a Ki(cathepsin L)/Ki(calpain) ratio of ≧50)”. For the same compound, the “Sel cat. S” value in assay [4] is “++ (++ means a Ki(cathepsin S)/Ki(calpain) ratio of ≧100)”.
The matching figures for `NC(=O)C(=O)C(Cc1ccccc1)NC(=O)c1cccnc1-n1ccc(C2CCCCC2)n1` (stereo not shown) [Example 192, N-[3-Amino-2,3-dioxo-1-(phenylmethyl)propyl]-2-(3-cyclohexyl-1H-pyrazol-1-yl)pyridine-3-carboxamide]: “+ (+ means 10≦Ki(cathepsin K)/Ki(calpain)<30)”, “++ (++ means a Ki(cathepsin L)/Ki(calpain) ratio of ≧50)” and “++ (++ means a Ki(cathepsin S)/Ki(calpain) ratio of ≧100)”.
On to `CN1CCN(c2ccc(-c3ccn(-c4ncccc4C(=O)NC(Cc4ccccc4)C(=O)C(N)=O)n3)cc2)CC1` (stereo not shown) [Example 68, N-(3-Amino-1-benzyl-2,3-dioxopropyl)-2-{3-[4-(4-methylpiperazin-1-yl)phenyl]-1H-pyrazol-1-yl}nicotinamide], for which the “Sel cat. K” value in assay [2] was “+ (+ means 10≦Ki(cathepsin K)/Ki(calpain)<30)”. The “Sel cat. S” value in assay [4] is “++ (++ means a Ki(cathepsin S)/Ki(calpain) ratio of ≧100)”.
As for `N#Cc1cnc(-n2ccc(-c3ccccc3F)n2)c(C(=O)NC(Cc2ccccc2)C(=O)C(N)=O)c1` (stereo not shown) [Example 188, N-[3-Amino-2,3-dioxo-1-(phenylmethyl)propyl]-5-cyano-2-[3-(2-fluorophenyl)-1H-pyrazol-1-yl]pyridine-3-carboxamide], the “Sel cat. K” value in assay [2] is “++ (++ means a Ki(cathepsin K)/Ki(calpain) ratio of ≧30)”. Further, the “Sel cat. L” value in assay [3] is recorded as “++ (++ means a Ki(cathepsin L)/Ki(calpain) ratio of ≧50)”.
`NC(=O)C(=O)C(Cc1cccs1)NC(=O)c1cccnc1-n1ccc(-c2ccccc2)n1` (stereo not shown) [Example 40, N-[3-Amino-2,3-dioxo-1-(2-thienylmethyl)propyl]-2-(3-phenyl-1H-pyrazol-1-yl)pyridine-3-carboxamide]: the “Sel cat. B” value in assay [1] was “+ (+ means 10≦Ki(cathepsin B)/Ki(calpain)<30)”. In addition, the “Sel cat. L” value in assay [3] is recorded as “++ (++ means a Ki(cathepsin L)/Ki(calpain) ratio of ≧50)”. Besides, in assay [4], the “Sel cat. S” value is on record as “++ (++ means a Ki(cathepsin S)/Ki(calpain) ratio of ≧100)”.

Source of the values: patent US9139557B2, “Carboxamide compounds and their use as calpain inhibitors” (Abbott GmbH & Co. KG, priority 2006, dated 2015).
